Data: ChEMBL document CHEMBL2218064, “Structure-activity relationship data for chemical series of antagonists of the P2X7 receptor (Supplementary Bioactivity Data for publication CHEMBL1157114)”

Target: T1, P2X purinoceptor 7 (Homo sapiens, UniProt Q99572)
T1 sequence (Q99572 whole entry): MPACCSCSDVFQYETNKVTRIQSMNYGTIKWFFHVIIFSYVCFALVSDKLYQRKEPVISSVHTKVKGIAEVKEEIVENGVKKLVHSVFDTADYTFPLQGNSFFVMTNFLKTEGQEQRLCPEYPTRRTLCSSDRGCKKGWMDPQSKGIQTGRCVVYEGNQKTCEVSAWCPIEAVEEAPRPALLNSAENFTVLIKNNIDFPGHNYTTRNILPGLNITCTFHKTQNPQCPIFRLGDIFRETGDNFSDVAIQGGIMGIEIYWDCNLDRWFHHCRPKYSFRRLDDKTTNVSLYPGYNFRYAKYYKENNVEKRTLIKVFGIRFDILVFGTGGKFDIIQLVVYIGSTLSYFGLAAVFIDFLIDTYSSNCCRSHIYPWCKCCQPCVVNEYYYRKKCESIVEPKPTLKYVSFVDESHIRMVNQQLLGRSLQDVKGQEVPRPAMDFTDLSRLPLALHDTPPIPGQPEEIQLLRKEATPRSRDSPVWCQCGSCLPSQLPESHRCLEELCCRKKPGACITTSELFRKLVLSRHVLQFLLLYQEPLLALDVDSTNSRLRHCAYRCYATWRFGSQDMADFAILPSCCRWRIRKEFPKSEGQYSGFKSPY
Test: SUPPLEMENTARY: Inhibition of human P2X7 receptor assessed as inhibition of ethidium bromide accumulation. Same assay as CHEMBL1103860

SMILES | IC50 [nM]
O=C(c1cccc(C(F)(F)F)c1Cl)N1CCn2c(nnc2-c2ccccc2O)C1 | 2.51
COc1ncccc1-n1nc(C)c(CC(=O)NCc2ccc(F)cc2Cl)c1C | 251
Cc1c(Br)cccc1N1CCN(C(=O)c2cccc(C(F)(F)F)c2Cl)CC1=O | 6.31
Cc1cccc(Cl)c1CNC(=O)Cc1c(C)nn(CC(C)(C)O)c1C | 200
O=C1CN(C(=O)c2cccc(Cl)c2Cl)CCN1Cc1ccc(F)cc1Cl | 158
COCCNCCn1ncc(CC(=O)NCc2ccc(F)cc2Cl)c1C(F)(F)F | 794
O=C(c1ccc(Cl)cc1Cl)N1CCn2c(nnc2-c2ccc(F)cc2)C1 | 15.8
Cc1nn(CCN2CCOCC2)c(C)c1CC(=O)NCc1cccc(Cl)c1C | 126
O=C1C(=O)N(c2ccc3c(c2)OCCO3)CCN1Cc1ccc(F)cc1Cl | 200
Cc1ccc(N2C[C@@H](C(=O)NCc3cccc(C(F)(F)F)c3Cl)N(C)C2=O)cn1 | 10
O=C(c1ccc(Cl)cc1Cl)N1CCn2c(Cl)cnc2C1 | 200
Cc1cc(Cl)ccc1CNC(=O)[C@@H]1CN(C)C(=O)N1C | 7.94
Cc1nn(-c2ccc(C#N)cn2)c(C)c1CC(=O)NCc1ccc(F)cc1Cl | 794
O=C(c1ccc(Cl)cc1Cl)N1CCn2c(nc(C(F)(F)F)c2-c2ccc(F)cc2)C1 | 158
CC(C#N)N1CCN(C(=O)c2cccc(C(F)(F)F)c2Cl)CC1=O (stereo unspecified) | 251
N#CCCN1CCN(C(=O)c2cccc(C(F)(F)F)c2Cl)CC1=O | 316
COc1ccc(F)cc1N1CCN(Cc2ccc(F)cc2Cl)C(=O)C1=O | 100
COc1ccc(I)cc1N1CCN(C(=O)c2cccc(C(F)(F)F)c2Cl)CC1=O | 12.6
Cc1nn(CC(C)(C)O)c(C)c1CC(=O)NCc1ccc(F)c(F)c1F | 794
CCN1[C@H](C(=O)NCc2cccc(C(F)(F)F)c2Cl)CCS1(=O)=O | 10
CCN1C(=O)CC[C@H]1C(=O)NCc1ccc(Cl)c(Cl)c1 | 251
O=C(c1ccc(Cl)cc1Cl)N1CCn2cc(C(F)(F)F)nc2C1 | 794
O=C(c1cccc(C(F)(F)F)c1Cl)N1CCn2c(-c3nccs3)cnc2C1 | 1.58
CCN1C(=O)CC[C@H]1C(=O)NCc1ccc(C(F)(F)F)cc1 | 200
Cc1nc(-c2nnc3n2CCN(C(=O)c2ccc(F)cc2Cl)C3)cs1 | 158
COc1cccc(N2CCN(Cc3ccc(F)cc3Cl)C(=O)C2=O)c1Cl | 25.1

SMILES | IC50 [nM]
O=C(c1ccc(F)cc1Cl)N1CCn2c(nnc2-c2cccc(F)c2)C1 | 15.8
CCN1C(=O)C(C)(C)C[C@H]1C(=O)NCc1cccc(C(F)(F)F)c1Cl | 5.01
CC1CC(=O)N(C)[C@@H]1C(=O)NCc1cccc(C(F)(F)F)c1Cl (stereo partly specified) | 25.1
O=C1C(=O)N(c2ccccc2Cl)CCN1Cc1ccc(F)cc1Cl | 20
CCN1C(=O)CC[C@H]1C(=O)NCc1cccc(Cl)c1F | 79.4
CCN1C(=O)N(C)C[C@H]1C(=O)NCc1ccc(F)cc1Cl | 7.94
Cc1ccc(C(=O)N2CCn3c(nnc3-c3cnccn3)C2)c(C)c1 | 126
CN1C(=O)N(c2ccnc(F)c2)C[C@H]1C(=O)NCc1cccc(C(F)(F)F)c1Cl | 63.1
CN1C(=O)CC[C@@H]1C(=O)NCc1ccc(Cl)cc1Cl | 50.1
O=C(c1ccc(F)cc1Cl)N1CCn2c(nc(C(F)(F)F)c2Br)C1 | 31.6
O=C(Cc1cnn(CCNC2CCOCC2)c1C(F)(F)F)NCc1ccc(F)cc1Cl | 1260
CCN1C(=O)CC[C@H]1C(=O)NCc1c(Cl)cccc1Cl | 100
Cc1ncccc1-n1nc(C)c(CC(=O)NCc2ccc(F)cc2Cl)c1C | 79.4
Cc1cncc(-n2nc(C)c(CC(=O)NCc3ccc(F)cc3Cl)c2C)c1 | 316
CN1C[C@@H](C(=O)NCc2ccc(Cl)cc2Cl)N(CC(F)F)C1=O | 15.8
Cc1cccc(Cl)c1CNC(=O)[C@@H]1CCS(=O)(=O)N1C | 398
Cn1nccc1CC(=O)NCc1ccc(F)cc1Cl | 251
CC(C)c1ccccc1N1CCN(Cc2ccc(F)cc2Cl)C(=O)C1=O | 7.94
O=C(c1cccc(Cl)c1Cl)N1CCn2c(-c3ccccc3)cnc2C1 | 5.01
COc1cccc(-n2nc(C)c(CC(=O)NCc3ccc(F)cc3Cl)c2C)c1 | 501
CCN1C(=O)CC[C@H]1C(=O)NCc1ccc(C)cc1C | 158
O=C(c1cccc(Cl)c1Cl)N1CCN(c2ccc(F)cc2Cl)C(=O)C1 | 31.6
COc1ccc(N2CCOCC2)cc1N1CCN(Cc2ccc(F)cc2Cl)C(=O)C1=O | 50.1
Cc1c(F)ccc(N2CCN(Cc3ccc(F)cc3Cl)C(=O)C2=O)c1C | 200
CC(C)c1ccccc1N1CCN(C(=O)c2cccc(Cl)c2Cl)CC1=O | 10
O=C(c1ccc(Cl)cc1F)N1CCN(c2ccc(F)cc2Cl)C(=O)C1 | 63.1

SMILES | IC50 [nM]
CN1C[C@@H](C(=O)NCc2ccc(F)c(Cl)c2Cl)N(C)C1=O | 2.51
O=C(Cc1cnn(-c2ccc(F)cc2)c1Br)NCc1ccc(F)cc1Cl | 398
CN1C(=O)N(CC2CC2)CC1C(=O)NCc1ccc(Cl)cc1Cl (stereo unspecified) | 3.16
CN1C(=O)N(c2ccccn2)CC1C(=O)NCc1cccc(C(F)(F)F)c1Cl (stereo unspecified) | 7.94
CN1C(=O)CC[C@H]1C(=O)NCc1ccc(F)c(C(F)(F)F)c1Cl | 3.16
O=C(c1ccc(Cl)c(F)c1Cl)N1CCn2c(nnc2-c2ccncn2)C1 | 20
CN1C(=O)N(CCN2CCOCC2)CC1C(=O)NCc1ccc(Cl)cc1Cl (stereo unspecified) | 79.4
CN1C(=O)N(c2ncccc2F)C[C@H]1C(=O)NCc1ccc(Cl)cc1Cl | 2
O=C1C(=O)N(c2cccc3[nH]ccc23)CCN1Cc1ccc(F)cc1Cl | 12.6
O=C(c1ccc(Cl)cc1Cl)N1CCn2c(nnc2-c2cnccn2)C1 | 3.16
Cc1ccccc1-n1cc(CC(=O)NCc2ccc(F)cc2Cl)cn1 | 631
CN1C[C@@H](C(=O)NCc2cccc(C(F)(F)F)c2Cl)NC1=O | 63.1
Cc1nn(-c2ccccc2)c(C(C)C)c1CC(=O)NCc1ccc(F)cc1Cl | 631
Cc1cccc(C)c1CNC(=O)Cc1c(C)nn(-c2ccccc2)c1C | 63.1
CC(C)N1C(=O)CC[C@H]1C(=O)NCc1cccc(C(F)(F)F)c1Cl | 2
Cc1cccc(C(=O)N2CCN(c3ccc(F)cc3Cl)C(=O)C2)c1Cl | 31.6
CN1C(=O)CC[C@H]1C(=O)NCc1cccc(C(F)(F)F)c1F | 25.1
O=C(c1c(Cl)cc(Cl)cc1Cl)N1CCn2c(-c3ccccc3)cnc2C1 | 12.6
CN1C(=O)N(c2cncn2C)C[C@H]1C(=O)NCc1cccc(C(F)(F)F)c1Cl | 5.01
Cc1ccc(N2CCOCC2)c(N2CCN(Cc3ccc(F)cc3Cl)C(=O)C2=O)c1 | 50.1
CCN1[C@H](C(=O)NCc2ccc(Cl)cc2Cl)CCS1(=O)=O | 15.8
Cc1cc(Cl)cc(Cl)c1CNC(=O)[C@@H]1CNC(=O)N1C | 1.26
CC(C)c1ccccc1N1CCN(C(=O)c2cccc(C(F)(F)F)c2Cl)CC1=O | 7.94
CN1C(=O)N(c2cncnc2)C[C@H]1C(=O)NCc1cccc(C(F)(F)F)c1Cl | 12.6
O=C(NCc1cccc(Cl)c1Cl)[C@@H]1CCC(=O)N1C1CCC1 | 12.6
O=C(NCc1ccc(Cl)cc1Cl)C1CC(=O)N(C2CC2)C1 (stereo unspecified) | 126

SMILES | IC50 [nM]
Cc1nn(CC(F)(F)F)c(C)c1CC(=O)NCc1ccc(F)cc1Cl | 316
Cc1cc(F)cc(C)c1N1CCN(Cc2cccc(C(F)(F)F)c2Cl)C(=O)C1=O | 50.1
CN1C[C@@H](C(=O)NCc2ccc(Cl)c(C(F)(F)F)c2)N(C)C1=O | 50.1
CN1C[C@@H](C(=O)NCc2c(F)cc(Cl)cc2Cl)N(C)C1=O | 5.01
Cc1ccc(Cl)cc1CNC(=O)Cc1c(C)nn(-c2ccccc2)c1C | 126
O=C(c1cccc(C(F)(F)F)c1Cl)N1CCN(c2cccc(N3CCOCC3)c2Cl)C(=O)C1 | 12.6
O=C(c1cccc(Cl)c1Cl)N1CCn2c(Br)nnc2C1 | 50.1
Cc1nn(-c2ncccc2C(F)(F)F)c(C)c1CC(=O)NCc1ccc(F)cc1Cl | 501
Cc1cnc2n1CCN(C(=O)c1cccc(C(F)(F)F)c1Cl)C2 | 50.1
CCN1C(=O)CC[C@@H]1C(=O)NCc1cccc(C(F)(F)F)c1F | 158
CCN1C(=O)CC[C@H]1C(=O)NCc1c(Cl)ccc(C)c1F | 794
Cc1nn(-c2ccccc2Cl)c(C)c1CC(=O)NCc1ccc(F)cc1Cl | 100
O=C(c1cccc(C(F)(F)F)c1Cl)N1CCn2c(nc(Cl)c2Cl)C1 | 3.16
O=C(c1ccc(Cl)cc1C(F)(F)F)N1CCn2c(nnc2-c2cnccn2)C1 | 20
Cc1cc(-n2nc(C)c(CC(=O)NCc3ccc(F)cc3Cl)c2C)ccn1 | 316
O=C(c1ccc(Cl)cc1Cl)N1CCn2c(nnc2-c2ccc(F)cc2F)C1 | 100
CN1C[C@@H](C(=O)NCc2ccc(F)c(C(F)(F)F)c2)N(C)C1=O | 50.1
O=C(c1cccc(C(F)(F)F)c1Cl)N1CCn2cc(-c3ccccc3)nc2C1 | 316
COc1nnc2n1CCN(C(=O)c1cccc(C(F)(F)F)c1Cl)C2 | 79.4
O=C1C(=O)N(c2cccc3cccnc23)CCN1Cc1ccc(F)cc1Cl | 1000
O=C(c1ccc(Cl)cc1Cl)N1CCn2c(nnc2-c2cscn2)C1 | 2
O=C1CN(C(=O)c2cccc(C(F)(F)F)c2Cl)CCN1CC1CCC1 | 200
CCN1C(=O)CC[C@H]1C(=O)NCc1c(C)cccc1Cl | 100
